Earlier results as cited in patent US20190367426A1, “LIQUID UREASE INHIBITOR FORMULATIONS” (YARA INTERNATIONAL ASA, priority 2017, published 2019).

Test system: rat

Structure (SMILES) | toxicity oral rat LD50
COCCOCCO [DEGMME, Diethylene glycol monomethyl ether] | 6450 mg/kg
CCCCOCCOCCO [DEGMBE, Diethylene glycol monobutyl ether] | 5660 mg/kg
